From patent US8476288B2, “Salts 756” (AstraZeneca AB, priority 2009, dated 2013)
Structures can show the parent of a compound that is named as a salt.

Assays:
Type in all cases: physicochemical
[1] = Salt storage stability at 40° C. and 75% relative humidity (HPLC for acid degradation product of Formula (A)); settings: stored under high temperature and humidity, for example 40° C. and 75% relative humidity
Description: The stability of the stability of the mono-saccharin (2 different batches), mono-trans-cinnamic acid, mono-succinic acid, mono-benzoic acid, difumaric acid, dixinafoic acid (di-1-hydroxy-2-naphthoic acid) and disaccharin salts of Compound (I) when stored at 40° C. and 75% relative humidity was measured as follows.
Approximately 30 mg of each salt was weighted into 4 mL screw cap vials, the vials closed and stored at 40° C./75% relative humidity with constant control of the environmental conditions. For every time point the samples were removed from the storage facility and analysed by HPLC for the presence of the acid degradation product of the Formula (A): […]
The HPLC analysis was performed using the following method:
A sample solution was prepared at approximately 0.1 to 0.2 mg/mL in the sample diluent, 0.03% trifluoroacetic acid in 50/50 v/v acetonitrile/water, using sonication as required. The following chromatographic conditions were applied: […]

[2] = Dynamic vapour sorption (DVS) hygroscopicity; settings: at 80% relative humidity, weight change from 0% RH to 80% RH in second DVS cycle
Description: DVS analysis was performed using an SMS Dynamic Vapour Sorption DVS-Advantage instrument. The solid sample (approximately 1-5 mg) was placed into a platinum sample holder and the weight of the sample was recorded during a dual cycle step method (40 to 90 to 0 to 90 to 0% relative humidity (RH), in steps of 10% RH).
The responses of the mono-fumaric acid salt and the difumaric acid salt (Examples 15 and 19) to changes in humidity were investigated using DVS. The hygroscopicity was calculated as the relative change in weight of the sample between 0% RH at the start of the second cycle and 80% RH during the increase of humidity in the second cycle.
The hygroscopicity of a sample is dependent on factors in addition to the inherent properties of the pure solid form itself, for example the purity and the crystallinity of the sample will have some impact on the result.

[3] = Salt/lactose monohydrate blend storage stability at 40° C. and 75% relative humidity; settings: mixtures of salt with lactose monohydrate; 40° C./75% relative humidity
Description: The storage stability of blends of lactose monohydrate with the mono-saccharin, mono-benzoic acid, difumaric acid and disaccharin salts of Compound (I) when stored at is 40° C. and 75% relative humidity was measured as follows.
Approximately 5 grams of each salt were micronised using a 1″ jet mill (MC One, Jetpharma, Balerna, Switzerland) with Nitrogen as the flow gas.
10 g of bulk lactose blend of each salt was prepared by the following method:
Micronised lactose monohydrate (9800 mg) was added to a 60 ml clear glass bottle. To this was added the micronised salt of compound (I) (200 mg) and a rubber stopper and aluminium screw cap used to close the bottle.
The bottle containing the salt and lactose monohydrate was placed in a trembling blender (Turbula T2C, W. Bachofen, Basel, Switzerland) blending vessel and the mixture blended for 10 minutes on speed 1 (30 rpm). A sample (2 g) of the lactose/salt blend was removed. The remaining of lactose/salt blend (8 g) was placed in a stability suite (controlled environmental conditions) at 40° C./75% relative humidity. The sample was temporarily removed from the storage facility for analysis. For each analysis 50 mg of the lactose/salt blend were dissolved in the sample diluents and analysed by HPLC for the compound of Formula (A) as described above in Example 23.

Row | SMILES | solid state chemical stability on storage [1] | moisture uptake (hygroscopicity) [2] | moisture uptake (hygroscopicity) ([2]; listed as difumaric acid salt of Compound (I)) | stability in the presence of lactose monohydrate [3]
1 | CCCCCNc1nc(N)nc(C)c1Cc1ccc(CC(=O)OCCCCN(C)C)cc1.O=C(O)c1ccccc1 [Example 1, 4-(Dimethylamino)butyl 2-(4-((2-amino-4-methyl-6-(pentylamino)pyrimidin-5-yl)methyl)phenyl)acetate benzoic acid salt] | good solid state chemical stability | – | – | –
2 | CCCCCNc1nc(N)nc(C)c1Cc1ccc(CC(=O)OCCCCN(C)C)cc1.O=C(O)/C=C/C(=O)O [Example 15, 4-(Dimethylamino)butyl 2-(4-((2-amino-4-methyl-6-(pentylamino)pyrimidin-5-yl)methyl)phenyl)acetate fumaric acid salt] | – | more than 2 % w/w | – | –
3 | CCCCCNc1nc(N)nc(C)c1Cc1ccc(CC(=O)OCCCCN(C)C)cc1.O=C(O)/C=C/C(=O)O [Example 19, 4-(Dimethylamino)butyl 2-(4-((2-amino-4-methyl-6-(pentylamino)pyrimidin-5-yl)methyl)phenyl)acetate difumaric acid salt] | good solid state chemical stability | – | 0.2-2 % w/w | particularly stable in the presence of lactose monohydrate
4 | CCCCCNc1nc(N)nc(C)c1Cc1ccc(CC(=O)OCCCCN(C)C)cc1 [disaccharin salt of Compound (I)] | good solid state chemical stability | – | – | particularly stable in the presence of lactose monohydrate
